For orientation: IC50 means the concentration at which inhibition is half-maximal.

Here are results for 31 molecules from US20160326143A1, “COMPOUNDS AND USES” (AstraZeneca AB, priority 2015, published 2016).

Chain of Recombinant human LTC4 synthase (Q16873 whole entry): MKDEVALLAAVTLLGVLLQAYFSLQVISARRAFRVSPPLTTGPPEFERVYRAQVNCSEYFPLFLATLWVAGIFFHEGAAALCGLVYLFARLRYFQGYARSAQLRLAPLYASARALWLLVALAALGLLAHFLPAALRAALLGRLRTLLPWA

This assay addresses Recombinant human LTC4 synthase (Homo sapiens (Human), UniProt Q16873). Put plainly: In vitro hLTC4 synthase enzyme assay (Test A). The class given is biochemical. The conditions noted are these: Test A (Examples 1-61); substrate LTA4, LTC4 detected by HTRF; median of at least two determinations. Here is the method:
In Vitro hLTC4 Synthase Enzyme Assay (Test A)
Recombinant human LTC4 synthase is expressed in Piccia pastoralis and the purified enzyme is dissolved in 25 mM tris-buffer pH 7.8 supplemented with 0.1 mM glutathione (GSH) and stored at −80° C.
The buffer is used as background. Runs are performed in duplicates.
The reaction is stopped after 1 min by addition of double the reaction volume of a stop solution (MeOH:H2O:acetic acid 70:30:1).
After 15 fold dilution in PBS, LTC4 formation is detected with LTC4 HTRF kit (Cisbio, cat. No 64LC4PEC) and a fluorescence reader. Typically 6 μL of sample is mixed with 3 μL of each of the HTRF reagents d2 and k and analyzed as described in the kit manual.
In general terms: Time-resolved FRET reads energy transfer from a long-lived donor to a nearby acceptor.
Turning to `COc1cc(N(CC2CC2)c2ccc(C(F)(F)F)c3cccnc23)cnc1C(=O)C1CC1C(=O)O` (stereo not shown) [Example 35, 2-(5-((Cyclopropylmethyl)(5-(trifluoromethyl)quinolin-8-yl)amino)-3-methoxypicolinoyl)cyclopropanecarboxylic acid], the IC50 came to 229 nM.
In the case of `COc1cc(N(Cc2ccc(Cl)cc2)CC2CC2)cnc1C(=O)C1CC1C(=O)O` (stereo not shown) [Example 13, 2-(5-((4-Chlorobenzyl)(cyclopropylmethyl)amino)-3-methoxypicolinoyl)cyclopropanecarboxylic acid], the IC50 was 34 nM.
As to `COc1cc(N(Cc2c(F)ccc(C)c2F)CC2CC2)cnc1C(=O)C1CC1C(=O)O` (stereo not shown) [Example 32, 2-(5-((Cyclopropylmethyl)(2,6-difluoro-3-methylbenzyl)amino)-3-methoxypicolinoyl)cyclopropanecarboxylic acid], the IC50 came out at 1670 nM.
In the case of `COc1cc(N(CC2CC2)c2ccc(C(F)(F)F)c3ccccc23)cnc1C(=O)C1CC1C(=O)O` (stereo not shown) [Example 34, 2-(5-((Cyclopropylmethyl)(4-(trifluoromethyl)naphthalen-1-yl)amino)-3-methoxypicolinoyl)cyclopropanecarboxylic acid], the IC50 was found to be 19 nM.
With `COc1nc(C(=O)C2CC2C(=O)O)ncc1N(CC1CC1)c1ccc(Cl)c2ccccc12` (stereo not shown) [Example 56, 2-(5-((4-Chloronaphthalen-1-yl)(cyclopropylmethyl)amino)-4-methoxypyrimidine-2-carbonyl)cyclopropanecarboxylic acid] the figure was 17 nM; with `O=C(O)C1CC1C(=O)c1ccc(N(CC2CC2)c2ccc(Cl)cc2)cn1` (stereo not shown) [Example 54, 2-(5-((4-Chlorophenyl)(cyclopropylmethyl)amino)picolinoyl)cyclopropanecarboxylic acid], 424 nM.
For `COc1cc(N(Cc2ccc(Cl)cc2)CC2CC2)ccc1C(=O)C1CC1C(=O)O` (stereo not shown) [Example 51, 2-(4-((4-Chlorobenzyl)(cyclopropylmethyl)amino)-2-methoxybenzoyl)cyclopropanecarboxylic acid], the IC50 came out at 68 nM.
In the case of `COc1cc(N(CC2CC2)c2ccc(C(F)(F)F)c3cccnc23)ccc1C(=O)C1CC1C(=O)O` (stereo not shown) [Example 53, 2-(4-((Cyclopropylmethyl)(5-(trifluoromethyl)quinolin-8-yl)amino)-2-methoxybenzoyl)cyclopropanecarboxylic acid], the IC50 was 152 nM.
`COc1cc(N(CC2CC2)c2ccc(F)c3ccccc23)cnc1C(=O)C1CC1c1nnn[nH]1` (stereo not shown) [Example 61, (2-(1H-Tetrazol-5-yl)cyclopropyl)(5-((cyclopropylmethyl)(4-fluoronaphthalen-1-yl)amino)-3-methoxypyridin-2-yl)methanone]: the IC50 turned out to be 39 nM.
Turning to `COc1nc(C(=O)C2CC2C(=O)O)ncc1N(CC1CC1)c1ccc(F)c2ccccc12` (stereo not shown) [Example 58, 2-(5-((Cyclopropylmethyl)(4-fluoronaphthalen-1-yl)amino)-4-methoxypyrimidine-2-carbonyl)cyclopropanecarboxylic acid], the IC50 amounted to 19 nM.
With `COc1cc(N(CC2CC2)c2ccc(Cl)cc2)ccc1C(=O)C1CC1C(=O)O` (stereo not shown) [Example 49, 2-(4-((4-Chlorophenyl)(cyclopropylmethyl)amino)-2-methoxybenzoyl)cyclopropanecarboxylic acid], the IC50 amounted to 65 nM.
With `COc1cc(N(CC2CC2)c2ccc(Cl)cc2)cnc1C(=O)C1CC1C(=O)NS(=O)(=O)c1ccccc1F` (stereo not shown) [Example 43, 2-(5-((4-Chlorophenyl)(cyclopropylmethyl)amino)-3-methoxypicolinoyl)-N-((2-fluorophenyl)sulfonyl)-cyclopropanecarboxamide] the figure was 74 nM; with `COc1cc(N(CC2CC2)c2cccc3c(C(F)(F)F)cccc23)cnc1C(=O)C1CC1C(=O)O` (stereo not shown) [Example 37, 2-(5-((Cyclopropylmethyl)(5-(trifluoromethyl)naphthalen-1-yl)amino)-3-methoxypicolinoyl)cyclopropanecarboxylic acid], 25 nM; with `COc1cc(N(CC2CC2)c2ccc(Cl)cc2)cnc1C(=O)C1CC1C(=O)NS(=O)(=O)C1CC1` (stereo not shown) [Example 40, 2-(5-((4-Chlorophenyl)(cyclopropylmethyl)amino)-3-methoxypicolinoyl)-N-(cyclopropylsulfonyl)-cyclopropanecarboxamide], 356 nM.
With `COc1cc(N(CC2CC2)c2cccc3ccccc23)cnc1C(=O)C1CC1C(=O)O` (stereo not shown) [Example 9, 2-(5-((Cyclopropylmethyl)(naphthalen-1-yl)amino)-3-methoxypicolinoyl)cyclopropanecarboxylic acid] the figure was 24 nM; with `COc1cc(N(CC2CC2)c2ccc(Cl)c3ccccc23)ccc1C(=O)C1CC1C(=O)O` (stereo not shown) [Example 47, 2-(4-((4-Chloronaphthalen-1-yl)(cyclopropylmethyl)amino)-2-methoxybenzoyl)cyclopropanecarboxylic acid], 61 nM; with `COc1cc(N(CC2CC2)c2ccc(C)c3ccccc23)ccc1C(=O)C1CC1C(=O)O` (stereo not shown) [Example 45, 2-(4-((Cyclopropylmethyl)(4-methylnaphthalen-1-yl)amino)-2-methoxybenzoyl)cyclopropanecarboxylic acid], 62 nM.
Turning to `COc1nc(C(=O)C2CC2C(=O)O)ncc1N(CC1CC1)c1ccc(C)c2ccccc12` (stereo not shown) [Example 59, 2-(5-((Cyclopropylmethyl)(4-methylnaphthalen-1-yl)amino)-4-methoxypyrimidine-2-carbonyl)cyclopropanecarboxylic acid], the IC50 was found to be 18 nM.
In the case of `COc1cc(N(Cc2cccc(C(F)(F)F)c2F)CC2CC2)cnc1C(=O)C1CC1C(=O)O` (stereo not shown) [Example 31, 2-(5-((Cyclopropylmethyl)(2-fluoro-3-(trifluoromethyl)benzyl)amino)-3-methoxypicolinoyl)cyclopropanecarboxylic acid], the IC50 turned out to be 331 nM.
Turning to `COc1cc(N(Cc2cccc(C(F)(F)F)c2Cl)CC2CC2)cnc1C(=O)C1CC1C(=O)O` (stereo not shown) [Example 22, 2-(5-((2-Chloro-3-(trifluoromethyl)benzyl)(cyclopropylmethyl)amino)-3-methoxypicolinoyl)cyclopropanecarboxylic acid], the IC50 is 112 nM.
For the molecule `COc1cc(N(Cc2ccc(C)c(F)c2F)CC2CC2)cnc1C(=O)C1CC1C(=O)O` (stereo not shown) [Example 33, 2-(5-((Cyclopropylmethyl)(2,3-difluoro-4-methylbenzyl)amino)-3-methoxypicolinoyl)cyclopropanecarboxylic acid], the IC50 was found to be 185 nM.
For `COc1ccc(S(=O)(=O)NC(=O)C2CC2C(=O)c2ncc(N(CC3CC3)c3ccc(Cl)cc3)cc2OC)cc1` (stereo not shown) [Example 41, 2-(5-((4-Chlorophenyl)(cyclopropylmethyl)amino)-3-methoxypicolinoyl)-N-((4-methoxyphenyl)sulfonyl)-cyclopropanecarboxamide], the IC50 turned out to be 81 nM.
Turning to `COc1cc(N(CC2CC2)c2ccc(F)c3ccccc23)ccc1C(=O)C1CC1C(=O)O` (stereo not shown) [Example 46, 2-(4-((Cyclopropylmethyl)(4-fluoronaphthalen-1-yl)amino)-2-methoxybenzoyl)cyclopropanecarboxylic acid], the IC50 was 26 nM.
As for `O=C(O)C1CC1C(=O)c1ccc(N(Cc2ccc(Cl)cc2)CC2CC2)cn1` (stereo not shown) [Example 55, 2-(5-((4-Chlorobenzyl)(cyclopropylmethyl)amino)picolinoyl)cyclopropanecarboxylic acid], the IC50 turned out to be 636 nM.
With `COc1cc(N(Cc2cccc(Cl)c2)CC2CC2)cnc1C(=O)C1CC1C(=O)O` (stereo not shown) [Example 18, 2-(5-((3-Chlorobenzyl)(cyclopropylmethyl)amino)-3-methoxypicolinoyl)cyclopropanecarboxylic acid] the figure was 39 nM.
Take `COc1cc(N(CC2(C)CC2)c2ccc(Cl)cc2)cnc1C(=O)C1CC1C(=O)O` (stereo not shown) [Example 5, 2-(5-((4-Chlorophenyl)((1-methylcyclopropyl)methyl)amino)-3-methoxypicolinoyl)cyclopropanecarboxylic acid]: the IC50 stood at 38 nM.
On to `COc1cc(N(CC2CC2)c2ccc3cccc4c3c2CC4)cnc1C(=O)C1CC1C(=O)O` (stereo not shown) [Example 38, 2-(5-((Cyclopropylmethyl)(1,2-dihydroacenaphthylen-3-yl)amino)-3-methoxypicolinoyl)cyclopropanecarboxylic acid], for which the concentration for half-maximal inhibition (IC50) amounted to 31 nM.
To `COc1cc(N(Cc2ccc(F)c(Cl)c2F)CC2CC2)cnc1C(=O)C1CC1C(=O)O` (stereo not shown) [Example 30, 2-(5-((3-Chloro-2,4-difluorobenzyl)(cyclopropylmethyl)amino)-3-methoxypicolinoyl)cyclopropanecarboxylic acid] belongs 152 nM; to `COc1cc(N(CC2CC2)c2cccc3ccccc23)cnc1C(=O)C1CC1c1nnn[nH]1` (stereo not shown) [Example 60, (2-(1H-Tetrazol-5-yl)cyclopropyl)(5-((cyclopropylmethyl)(naphthalen-1-yl)amino)-3-methoxypyridin-2-yl)methanone], 96 nM; to `COc1cc(N(Cc2cccc(C(F)(F)F)c2C)CC2CC2)cnc1C(=O)C1CC1C(=O)O` (stereo not shown) [Example 20, 2-(5-((Cyclopropylmethyl)(2-methyl-3-(trifluoromethyl)benzyl)amino)-3-methoxypicolinoyl)cyclopropanecarboxylic acid], 88 nM.
To `COc1cc(N(CC2(C)CC2)c2ccc3c(c2)CCC3)cnc1C(=O)C1CC1C(=O)O` (stereo not shown) [Example 6, 2-(5-((2,3-Dihydro-1H-inden-5-yl)((1-methylcyclopropyl)methyl)amino)-3-methoxypicolinoyl)cyclopropanecarboxylic acid] belongs 47 nM.
